Reference: ChEMBL document CHEMBL5465560, “Selectivity Literature for EUbOPEN Chemogenomic Library” (2024)
Each block holds one compound with its values, some of them ahead of it.

Key:
[1] = molecular target: T1, Serine/threonine-protein kinase PLK4 (Homo sapiens) (UniProt O00444); experiment: Selectivity interaction (LanthaScreen Eu Kinase Binding Assay) EUB0001632a PLK4; details: at 10 µM
T1 sequence (whole entry): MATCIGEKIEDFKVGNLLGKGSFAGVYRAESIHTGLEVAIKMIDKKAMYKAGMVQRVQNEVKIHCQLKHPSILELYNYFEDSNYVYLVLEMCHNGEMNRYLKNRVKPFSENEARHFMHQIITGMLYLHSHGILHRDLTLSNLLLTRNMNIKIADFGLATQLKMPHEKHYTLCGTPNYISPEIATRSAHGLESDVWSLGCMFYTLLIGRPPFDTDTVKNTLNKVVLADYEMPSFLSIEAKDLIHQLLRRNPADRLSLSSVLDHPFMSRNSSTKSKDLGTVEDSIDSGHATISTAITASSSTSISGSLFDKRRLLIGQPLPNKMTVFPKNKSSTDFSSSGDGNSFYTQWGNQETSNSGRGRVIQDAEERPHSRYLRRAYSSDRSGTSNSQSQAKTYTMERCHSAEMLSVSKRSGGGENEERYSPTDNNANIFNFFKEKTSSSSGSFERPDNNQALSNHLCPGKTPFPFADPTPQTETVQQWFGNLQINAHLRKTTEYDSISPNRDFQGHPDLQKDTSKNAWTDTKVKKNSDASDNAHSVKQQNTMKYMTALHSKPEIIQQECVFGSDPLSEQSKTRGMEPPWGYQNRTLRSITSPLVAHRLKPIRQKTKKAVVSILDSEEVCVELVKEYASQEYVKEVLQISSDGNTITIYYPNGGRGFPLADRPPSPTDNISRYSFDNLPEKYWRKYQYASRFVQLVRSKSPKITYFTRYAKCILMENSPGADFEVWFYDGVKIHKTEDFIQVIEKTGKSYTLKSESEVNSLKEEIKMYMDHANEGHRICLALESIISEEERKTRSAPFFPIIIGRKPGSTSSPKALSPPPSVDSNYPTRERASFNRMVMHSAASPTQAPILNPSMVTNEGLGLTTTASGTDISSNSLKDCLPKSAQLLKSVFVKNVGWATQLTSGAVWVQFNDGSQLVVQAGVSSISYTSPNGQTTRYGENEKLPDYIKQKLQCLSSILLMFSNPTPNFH

[2] = molecular target: Fibroblast growth factor receptor 3 (Homo sapiens, UniProt P22607); experiment: (§1) Selectivity interaction (Kinase panel (Z-LYTE Assay)) EUB0001632a FGFR3; details: at 10 µM
[3] = tested on: Fibroblast growth factor receptor 3 (Homo sapiens), P22607 [K650E]; experiment: as §1; details: at 10 µM
Sequence of Fibroblast growth factor receptor 3 (Homo sapiens), P22607 [K650E] (P22607 whole entry K650E): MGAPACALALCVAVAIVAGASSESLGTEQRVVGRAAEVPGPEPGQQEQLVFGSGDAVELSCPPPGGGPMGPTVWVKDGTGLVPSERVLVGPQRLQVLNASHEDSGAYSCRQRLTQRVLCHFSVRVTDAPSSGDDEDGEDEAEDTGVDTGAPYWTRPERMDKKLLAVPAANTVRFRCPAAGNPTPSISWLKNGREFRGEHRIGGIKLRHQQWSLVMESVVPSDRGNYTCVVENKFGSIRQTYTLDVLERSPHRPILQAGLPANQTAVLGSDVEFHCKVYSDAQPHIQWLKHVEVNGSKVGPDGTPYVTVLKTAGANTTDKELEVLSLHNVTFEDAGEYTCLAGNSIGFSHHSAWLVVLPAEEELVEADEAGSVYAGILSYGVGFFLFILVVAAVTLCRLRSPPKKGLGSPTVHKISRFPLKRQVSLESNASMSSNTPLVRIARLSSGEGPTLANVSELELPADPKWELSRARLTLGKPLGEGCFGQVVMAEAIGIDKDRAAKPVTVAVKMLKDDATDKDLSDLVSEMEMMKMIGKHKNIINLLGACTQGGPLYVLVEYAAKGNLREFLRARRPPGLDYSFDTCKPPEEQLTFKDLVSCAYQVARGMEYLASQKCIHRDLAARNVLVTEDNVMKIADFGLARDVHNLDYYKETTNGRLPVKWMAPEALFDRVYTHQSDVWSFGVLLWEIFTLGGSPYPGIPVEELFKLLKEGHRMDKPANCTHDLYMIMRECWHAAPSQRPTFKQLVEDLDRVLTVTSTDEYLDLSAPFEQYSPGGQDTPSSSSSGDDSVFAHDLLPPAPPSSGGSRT

[4] = tested on: Tyrosine-protein kinase ABL1 (Homo sapiens), P00519 [H396P]; experiment: Selectivity interaction (KinomeScan (DiscoverX)) EUB0000666a ABL1; details: at 10 µM
[5] = molecular target: T2, Testis-specific serine/threonine-protein kinase 3 (Homo sapiens) (UniProt Q96PN8); experiment: Selectivity interaction (SelectScreen profiling (Invitrogen)) EUB0000607a TSSK3; details: at 2 µM
T2 sequence (whole entry): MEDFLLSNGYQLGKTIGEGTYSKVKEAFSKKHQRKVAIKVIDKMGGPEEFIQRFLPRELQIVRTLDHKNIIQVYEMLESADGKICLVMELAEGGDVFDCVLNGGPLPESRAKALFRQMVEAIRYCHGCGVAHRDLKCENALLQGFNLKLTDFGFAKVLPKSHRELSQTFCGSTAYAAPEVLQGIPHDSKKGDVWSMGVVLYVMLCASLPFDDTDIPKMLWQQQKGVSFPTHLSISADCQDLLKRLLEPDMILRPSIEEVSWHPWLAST

[6] = molecular target: Tyrosine-protein kinase CSK (Homo sapiens) (UniProt P41240); experiment: Selectivity interaction (ActivX KiNativ screen (kinase selectivity in THP-1 cell lysates)) EUB0000639a CSK; format: subcellular; details: lysate, at 0.2 µM
Sequence of Tyrosine-protein kinase CSK (Homo sapiens) (P41240 2-450 limits assumed): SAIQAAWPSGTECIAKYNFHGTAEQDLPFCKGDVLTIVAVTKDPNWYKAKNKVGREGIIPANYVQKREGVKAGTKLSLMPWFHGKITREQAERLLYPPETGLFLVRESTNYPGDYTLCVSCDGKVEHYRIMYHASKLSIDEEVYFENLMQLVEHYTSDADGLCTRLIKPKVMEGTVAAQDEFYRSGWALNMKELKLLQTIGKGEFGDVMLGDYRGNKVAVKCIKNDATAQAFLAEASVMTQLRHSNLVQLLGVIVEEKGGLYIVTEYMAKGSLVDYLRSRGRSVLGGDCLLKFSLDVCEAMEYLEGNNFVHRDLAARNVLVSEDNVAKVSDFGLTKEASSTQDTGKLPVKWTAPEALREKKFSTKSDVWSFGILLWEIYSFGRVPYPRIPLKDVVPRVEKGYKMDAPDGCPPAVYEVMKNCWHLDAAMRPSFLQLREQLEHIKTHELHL

[7] = molecular target: Tyrosine-protein kinase Lyn (Homo sapiens, UniProt P07948); experiment: Selectivity interaction (Kinase panel (Invitrogen)) EUB0000639a LYN; details: at 200 nM
Sequence of Tyrosine-protein kinase Lyn (P07948 2-512 limits assumed): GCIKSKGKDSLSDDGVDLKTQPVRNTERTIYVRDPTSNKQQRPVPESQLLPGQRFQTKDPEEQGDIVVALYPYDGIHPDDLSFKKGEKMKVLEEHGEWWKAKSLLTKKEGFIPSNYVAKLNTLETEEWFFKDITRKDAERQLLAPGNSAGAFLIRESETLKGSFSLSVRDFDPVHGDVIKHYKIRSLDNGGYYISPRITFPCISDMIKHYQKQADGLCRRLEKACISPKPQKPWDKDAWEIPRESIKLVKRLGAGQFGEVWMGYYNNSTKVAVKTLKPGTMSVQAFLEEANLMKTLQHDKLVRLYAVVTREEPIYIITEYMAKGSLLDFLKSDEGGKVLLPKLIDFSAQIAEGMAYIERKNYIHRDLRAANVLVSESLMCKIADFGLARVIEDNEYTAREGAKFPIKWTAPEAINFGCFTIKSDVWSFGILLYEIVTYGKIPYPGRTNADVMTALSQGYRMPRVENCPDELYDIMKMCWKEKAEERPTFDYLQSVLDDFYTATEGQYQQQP

[8] = molecular target: Mitogen-activated protein kinase 8 (Homo sapiens, UniProt P45983); experiment: Selectivity interaction (Kinase panel (Invitrogen)) EUB0000639a MAPK8; details: at 200 nM
Sequence of Mitogen-activated protein kinase 8 (P45983 whole entry): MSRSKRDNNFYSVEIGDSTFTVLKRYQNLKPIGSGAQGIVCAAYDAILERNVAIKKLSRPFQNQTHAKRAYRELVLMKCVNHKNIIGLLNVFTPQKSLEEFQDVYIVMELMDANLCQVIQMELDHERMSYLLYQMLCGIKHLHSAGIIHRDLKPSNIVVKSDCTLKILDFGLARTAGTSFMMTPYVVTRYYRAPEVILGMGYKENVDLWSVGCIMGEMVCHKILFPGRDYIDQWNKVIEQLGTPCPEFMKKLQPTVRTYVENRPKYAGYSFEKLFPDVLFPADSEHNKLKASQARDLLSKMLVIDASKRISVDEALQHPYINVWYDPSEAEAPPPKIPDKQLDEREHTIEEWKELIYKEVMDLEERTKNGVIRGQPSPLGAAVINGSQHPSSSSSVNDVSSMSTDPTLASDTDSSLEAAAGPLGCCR

[9] = molecular target: T3, Megakaryocyte-associated tyrosine-protein kinase (Homo sapiens) (UniProt P42679); experiment: Selectivity interaction (ProQinase) EUB0000171b MATK
T3 sequence (whole entry): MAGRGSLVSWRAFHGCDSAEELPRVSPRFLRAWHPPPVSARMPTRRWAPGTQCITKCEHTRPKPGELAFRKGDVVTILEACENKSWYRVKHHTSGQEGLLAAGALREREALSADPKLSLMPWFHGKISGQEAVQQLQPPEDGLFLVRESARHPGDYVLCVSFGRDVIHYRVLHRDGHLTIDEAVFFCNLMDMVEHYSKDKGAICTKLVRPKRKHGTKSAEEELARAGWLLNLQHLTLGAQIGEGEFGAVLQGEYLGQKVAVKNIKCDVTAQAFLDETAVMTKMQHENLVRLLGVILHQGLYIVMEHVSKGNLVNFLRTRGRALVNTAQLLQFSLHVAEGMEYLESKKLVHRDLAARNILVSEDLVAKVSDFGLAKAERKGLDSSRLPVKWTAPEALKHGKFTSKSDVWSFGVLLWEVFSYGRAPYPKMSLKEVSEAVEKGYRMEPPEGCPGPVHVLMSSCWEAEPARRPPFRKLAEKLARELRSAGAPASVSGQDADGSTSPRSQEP

[10] = molecular target: Serine/threonine-protein kinase pim-2 (Homo sapiens, UniProt Q9P1W9); experiment: Selectivity interaction (ProQinase) EUB0000171b PIM2
Sequence of Serine/threonine-protein kinase pim-2 (Q9P1W9 whole entry, looked up): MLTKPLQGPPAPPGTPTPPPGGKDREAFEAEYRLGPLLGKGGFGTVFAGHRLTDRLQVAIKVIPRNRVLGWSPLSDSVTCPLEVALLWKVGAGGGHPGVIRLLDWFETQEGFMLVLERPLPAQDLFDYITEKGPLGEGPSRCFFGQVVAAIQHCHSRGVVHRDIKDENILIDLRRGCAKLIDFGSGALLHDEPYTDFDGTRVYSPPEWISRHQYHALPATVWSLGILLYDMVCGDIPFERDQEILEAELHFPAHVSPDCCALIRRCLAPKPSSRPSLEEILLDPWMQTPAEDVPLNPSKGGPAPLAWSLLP

[11] = molecular target: T4, Ribosomal protein S6 kinase alpha-3 (Homo sapiens, UniProt P51812); experiment: Selectivity interaction (KinomeScan (DiscoverX)) EUB0000695a RPS6KA3; details: at 100 nM
T4 sequence (P51812 whole entry): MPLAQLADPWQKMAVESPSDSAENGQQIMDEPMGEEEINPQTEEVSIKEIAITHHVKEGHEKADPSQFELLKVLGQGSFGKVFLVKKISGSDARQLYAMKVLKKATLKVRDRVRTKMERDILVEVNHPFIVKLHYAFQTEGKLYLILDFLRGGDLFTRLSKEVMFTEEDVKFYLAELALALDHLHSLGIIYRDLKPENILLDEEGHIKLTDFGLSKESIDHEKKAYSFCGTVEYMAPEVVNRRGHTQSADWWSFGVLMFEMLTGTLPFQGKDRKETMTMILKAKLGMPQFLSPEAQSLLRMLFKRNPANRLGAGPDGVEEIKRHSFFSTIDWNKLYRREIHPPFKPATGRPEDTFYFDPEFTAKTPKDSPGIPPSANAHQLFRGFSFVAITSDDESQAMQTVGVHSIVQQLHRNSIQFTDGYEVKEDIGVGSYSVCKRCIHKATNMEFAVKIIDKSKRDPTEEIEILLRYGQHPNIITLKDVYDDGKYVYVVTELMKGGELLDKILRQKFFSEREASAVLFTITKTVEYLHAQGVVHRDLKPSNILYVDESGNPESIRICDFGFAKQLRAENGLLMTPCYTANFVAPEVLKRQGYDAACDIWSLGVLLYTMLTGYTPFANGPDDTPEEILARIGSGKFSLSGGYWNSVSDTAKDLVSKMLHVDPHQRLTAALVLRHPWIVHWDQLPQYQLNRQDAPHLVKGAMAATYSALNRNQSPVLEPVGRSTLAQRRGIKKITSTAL

[12] = molecular target: Tyrosine-protein kinase HCK (Homo sapiens) (UniProt P08631); experiment: Selectivity interaction (KinomeScan (DiscoverX)) EUB0000655a HCK; details: at 10 µM
Sequence of Tyrosine-protein kinase HCK (Homo sapiens) (P08631 2-526 limits assumed): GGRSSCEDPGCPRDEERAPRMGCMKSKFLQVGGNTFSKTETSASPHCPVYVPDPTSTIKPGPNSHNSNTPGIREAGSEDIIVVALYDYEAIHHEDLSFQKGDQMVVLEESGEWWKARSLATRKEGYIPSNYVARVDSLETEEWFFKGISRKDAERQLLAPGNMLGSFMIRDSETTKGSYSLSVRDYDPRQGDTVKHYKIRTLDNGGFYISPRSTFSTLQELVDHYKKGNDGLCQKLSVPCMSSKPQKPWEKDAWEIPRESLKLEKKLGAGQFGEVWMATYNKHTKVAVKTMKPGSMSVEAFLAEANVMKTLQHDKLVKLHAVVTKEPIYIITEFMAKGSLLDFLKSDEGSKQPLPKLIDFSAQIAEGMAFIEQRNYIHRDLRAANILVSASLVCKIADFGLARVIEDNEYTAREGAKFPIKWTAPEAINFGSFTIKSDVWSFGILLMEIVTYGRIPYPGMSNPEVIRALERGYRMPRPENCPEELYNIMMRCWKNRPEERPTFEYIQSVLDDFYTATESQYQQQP

[13] = molecular target: Delta-type opioid receptor (Homo sapiens, UniProt P41143); experiment: Selectivity interaction (GPCR panel (PDSP screen)) EUB0001079a OPRD1; details: at 10 µM
Sequence of Delta-type opioid receptor (P41143 whole entry): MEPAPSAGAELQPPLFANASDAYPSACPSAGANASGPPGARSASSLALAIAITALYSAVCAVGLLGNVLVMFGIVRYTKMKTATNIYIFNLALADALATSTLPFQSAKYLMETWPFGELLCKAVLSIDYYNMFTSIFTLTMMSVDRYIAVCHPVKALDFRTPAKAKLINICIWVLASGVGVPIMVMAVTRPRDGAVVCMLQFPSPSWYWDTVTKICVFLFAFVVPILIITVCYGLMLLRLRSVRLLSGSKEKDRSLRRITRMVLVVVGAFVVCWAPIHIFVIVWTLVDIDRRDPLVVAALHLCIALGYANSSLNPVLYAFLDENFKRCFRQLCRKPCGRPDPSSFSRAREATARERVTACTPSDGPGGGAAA

[14] = molecular target: 1-phosphatidylinositol 3-phosphate 5-kinase (Homo sapiens) (UniProt Q9Y2I7); experiment: Selectivity interaction (KinomeScan (DiscoverX)) EUB0000229b PIKFYVE; details: at 10 µM
[15] = molecular target: Insulin receptor-related protein (Homo sapiens) (UniProt P14616); experiment: Selectivity interaction (KinomeScan (DiscoverX)) EUB0000618a INSRR; details: at 10 µM
[16] = molecular target: Death-associated protein kinase 2 (Homo sapiens) (UniProt Q9UIK4); experiment: Selectivity interaction (KinomeScan (DiscoverX)) EUB0000618a DAPK2; details: at 10 µM
Sequence of Death-associated protein kinase 2 (Homo sapiens) (Q9UIK4 whole entry, looked up): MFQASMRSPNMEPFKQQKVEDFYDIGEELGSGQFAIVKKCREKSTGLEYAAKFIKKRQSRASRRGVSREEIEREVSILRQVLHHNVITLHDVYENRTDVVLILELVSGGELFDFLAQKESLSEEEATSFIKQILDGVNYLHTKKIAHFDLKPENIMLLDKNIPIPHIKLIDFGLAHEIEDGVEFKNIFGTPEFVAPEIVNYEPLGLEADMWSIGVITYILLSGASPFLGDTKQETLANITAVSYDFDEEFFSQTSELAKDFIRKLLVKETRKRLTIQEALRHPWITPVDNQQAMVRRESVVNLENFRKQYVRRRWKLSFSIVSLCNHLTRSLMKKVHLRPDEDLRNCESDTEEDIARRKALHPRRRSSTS

[17] = molecular target: T4, Ribosomal protein S6 kinase alpha-3; experiment: Selectivity interaction (ActivX KiNativ screen (ex vivo kinase selectivity in human PBMCs)) EUB0001619a RPS6KA3; format: cell-based; details: PBMC, at 1 µM
[18] = molecular target: Serine/threonine-protein kinase 24 (Homo sapiens) (UniProt Q9Y6E0); experiment: Selectivity interaction (ActivX KiNativ screen (ex vivo kinase selectivity in human PBMCs)) EUB0001619a STK24; format: cell-based; details: PBMC, at 1 µM
Sequence of Serine/threonine-protein kinase 24 (Homo sapiens) (Q9Y6E0 whole entry, looked up): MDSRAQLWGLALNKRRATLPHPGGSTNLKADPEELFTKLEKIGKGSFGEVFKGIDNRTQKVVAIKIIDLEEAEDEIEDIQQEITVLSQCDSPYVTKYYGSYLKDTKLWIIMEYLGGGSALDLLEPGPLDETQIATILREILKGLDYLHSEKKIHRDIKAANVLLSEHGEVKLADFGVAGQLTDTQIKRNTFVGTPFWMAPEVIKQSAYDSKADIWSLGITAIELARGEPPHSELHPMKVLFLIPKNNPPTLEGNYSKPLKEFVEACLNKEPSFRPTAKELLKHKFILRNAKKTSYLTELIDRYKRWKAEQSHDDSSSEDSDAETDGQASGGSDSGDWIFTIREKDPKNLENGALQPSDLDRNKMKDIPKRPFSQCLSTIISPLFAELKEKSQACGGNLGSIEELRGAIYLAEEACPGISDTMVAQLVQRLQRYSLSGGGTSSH

% of inhibition [1]: 0.376%
% of control [2]: 4.08%
% of control [3]: 19.3%
SMILES: Cn1cc(-n2cnc3c(NCc4nc5cc(Cl)c(Cl)cc5[nH]4)nc(N4CCOCC4)nc32)cn1

SMILES: O=C(NOC[C@H](O)CO)c1ccc(F)c(F)c1Nc1ccc(I)cc1F
% of control [4]: 100%

SMILES: CNC(=O)Nc1ccc(-c2nc(N3CC4CCC(C3)O4)c3cnn(C4CCC5(CC4)OCCO5)c3n2)cc1
% of inhibition [5]: 3%

% of inhibition [6]: -6.8%
% of inhibition [7]: 6.8%
% of inhibition [8]: -0.665%
SMILES: CC[C@@H]1[C@H](F)C(=O)N[C@@H]1COc1nccc2cc(C(N)=O)c(OC)cc12 [ZIMLOVISERTIB]

% of control ([9]; at 1 µM): 92%
% of control ([9]; at 5 µM): 111%
% of control ([10]; at 1 µM): 101%
% of control ([10]; at 5 µM): 69%
SMILES: C=CC(=O)Nc1cccc(C(=O)Nc2ccc(Nc3cc(-c4[nH]c(SC)nc4C)ccn3)cc2)c1

SMILES: Cc1cc(F)c(C(=O)Nc2cccc(-c3nncn3C(C)C)n2)cc1-n1cnc(C2CC2)c1
% of control [11]: 46%

SMILES: CN(C)CCOc1ccc(-c2nc(-c3ccncc3)c(-c3ccc4c(c3)CC/C4=N\O)[nH]2)cc1
% of control [12]: 84%

SMILES: Nc1cnc(N2CCc3cc(S(=O)(=O)Nc4c(F)cc(Cl)cc4F)cc(N4CCCC4=O)c32)nc1 [TP-020n]
% of inhibition [13]: -1.24%

SMILES: COc1cc(N(C)c2ccnc3ccc(C(F)(F)F)cc23)cc(OC)c1OC
% binding [14]: 46%

SMILES: O[C@H]1CC[C@H](Nc2ncc3nc(Nc4c(F)cc(F)cc4F)n([C@H]4CCOC4)c3n2)CC1
% of control [15]: 100%
% of control [16]: 100%

SMILES: N#Cc1cccc(-c2c[nH]c3ncnc(N4CCOCC4)c23)c1
% of inhibition [17]: -3%
% of inhibition [18]: 46%
